Assay results taken from PMC12655351, “Synthesis and Anticancer Activity Evaluation of New 5-((5-Nitrofuran-2-yl)allylidene)-2-thioxo-4-thiazolidinones” (Pharmaceuticals, 2025).

Tests used:
[1] = tested on: K-562; settings: K-562, 48 h
[2] = tested on: SR; settings: 48 h
[3] = tested on: NCI-H23; settings: NCI-H23, 48 h
[4] = tested on: HCT-116; settings: HCT-116, 48 h
[5] = tested on: HT29; settings: HT29, 48 h
[6] = tested on: SF-268; settings: SF-268, 48 h
[7] = tested on: LOX IMVI; settings: LOX IMVI, 48 h
[8] = tested on: MDA-MB-435; settings: MDA-MB-435, 48 h
[9] = tested on: SK-MEL-5; settings: SK-MEL-5, 48 h
[10] = tested on: OVCAR-3; settings: OVCAR-3, 48 h
[11] = tested on: NCI/ADR-RES; settings: 48 h
[12] = tested on: 786-0; settings: 786-0, 48 h
[13] = tested on: A498; settings: A498, 48 h
[14] = tested on: CAKI-1; settings: CAKI-1, 48 h
[15] = tested on: SN12C; settings: SN12C, 48 h
[16] = tested on: T-47D; settings: 48 h
[17] = tested on: Prostate Cancer; settings: Prostate Cancer subpanel
[18] = tested on: CCRF-CEM; experiment: cells; settings: Homo sapiens, 48 h
[19] = tested on: RPMI-8226; experiment: cells; settings: Homo sapiens, RPMI-8226, 48 h
[20] = tested on: HT29; experiment: cells; settings: Homo sapiens, HT-29, 48 h
[21] = tested on: LOX IMVI; experiment: cells; settings: Homo sapiens, 48 h
[22] = tested on: SK-MEL-28; experiment: cells; settings: Homo sapiens, SK-MEL-28, 48 h
[23] = tested on: SK-MEL-5; experiment: cells; settings: Homo sapiens, SK-MEL-5, 48 h
[24] = tested on: UACC-257; experiment: cells; settings: Homo sapiens, UACC-257, 48 h
[25] = tested on: CAKI-1; experiment: cells; settings: Homo sapiens, CAKI-1, 48 h
[26] = tested on: T-47D; experiment: cells; settings: Homo sapiens, T47D, 48 h
[27] = tested on: NCI-H460; experiment: NCI-60 SRB screen; settings: NCI-H460, 48 h
[28] = tested on: KM12; experiment: NCI-60 SRB screen; settings: KM12, 48 h
[29] = tested on: SW-620; experiment: NCI-60 SRB screen; settings: SW-620, 48 h
[30] = tested on: SNB-19; experiment: NCI-60 SRB screen; settings: SNB-19, 48 h
[31] = tested on: SNB-75; experiment: NCI-60 SRB screen; settings: SNB-75, 48 h
[32] = tested on: SK-MEL-2; experiment: NCI-60 SRB screen; settings: SK-MEL-2, 48 h
[33] = tested on: ACHN; experiment: NCI-60 SRB screen; settings: 48 h
[34] = tested on: RXF 393; experiment: NCI-60 SRB screen; settings: RXF 393, 48 h

CCCC(C(=O)O)N1C(=O)/C(=C/C=C/c2ccc([N+](=O)[O-])o2)SC1=S (stereo not shown) [4b, 2-((Z)-5-((E)-3-(5-Nitrofuran-2-yl)allylidene)-4-oxo-2-thioxothiazolidin-3-yl)pentanoic acid]
TGI [1]: 14.5 µM | TGI [2]: 8.87 µM | TGI [3]: 4.11 µM | TGI [4]: 3.90 µM | TGI [5]: 3.81 µM | TGI [6]: 4.45 µM | TGI [7]: 3.12 µM | TGI [8]: 3.31 µM | TGI [9]: 2.79 µM | TGI [10]: 5.39 µM | TGI [11]: 4.96 µM | TGI [12]: 12.6 µM | TGI [13]: 7.21 µM | TGI [14]: 3.70 µM | growth GP ([15]; 10 μM): -95.04% | TGI [15]: 4.05 µM | TGI [16]: 5.49 µM | MG_MID TGI [17]: 8.56 µM | GI50 [18]: 2.27 µM | GI50 [19]: 1.79 µM | CC50 ([19]; read-out: LC50): > 100 µM | GI50 ([20]; HT29, 48 h): 1.95 µM | CC50 ([20]; read-out: LC50, HT29, 48 h): 7.45 µM | GI50 [21]: 1.59 µM | CC50 ([21]; read-out: LC50, LOX IMVI, 48 h): 6.11 µM | GI50 [22]: 1.76 µM | CC50 ([22]; read-out: LC50, SK-MEL-28, 48 h): 6.98 µM | GI50 [23]: 1.47 µM | CC50 ([23]; read-out: LC50, SK-MEL-5, 48 h): 5.31 µM | GI50 [24]: 1.96 µM | CC50 ([24]; read-out: LC50, UACC-257, 48 h): 14.8 µM | GI50 [25]: 1.75 µM | GI50 ([26]; T-47D): 2.2 µM | CC50 ([26]; read-out: LC50): > 100 µM | GI50 ([27]; Homo sapiens): 1.7 µM | CC50 ([27]; Homo sapiens, read-out: LC50): 6.23 µM | TGI [27]: 3.25 µM | GI50 ([28]; Homo sapiens): 1.38 µM | TGI [28]: 2.78 µM | GI50 ([29]; Homo sapiens): 1.55 µM | TGI [29]: 3.08 µM | GI50 ([30]; Homo sapiens): 2.01 µM | CC50 ([30]; Homo sapiens, read-out: LC50, SNB-19, 48 h): 8.45 µM | TGI [30]: 4.12 µM | GI50 ([31]; Homo sapiens): 1.53 µM | CC50 ([31]; Homo sapiens, read-out: LC50, SNB-75, 48 h): 6.99 µM | TGI [31]: 3.27 µM | GI50 ([32]; Homo sapiens): 1.53 µM | CC50 ([32]; Homo sapiens, read-out: LC50, SK-MEL-2, 48 h): 5.89 µM | TGI [32]: 3.00 µM | TGI [33]: 3.44 µM | GI50 ([33]; Homo sapiens): 1.72 µM | CC50 ([33]; Homo sapiens, read-out: LC50, ACHN, 48 h): 6.87 µM | GI50 ([34]; Homo sapiens): 1.89 µM | TGI [34]: 3.40 µM
